Our source for the Ki values is publication PMC10517971, “An inverse agonist of orphan receptor GPR61 acts by a G protein-competitive allosteric mechanism” (Nature Communications, 2023).

Structures are written as SMILES. Some results are limits rather than exact numbers.

The assay concerns the target hERG (Homo sapiens, UniProt Q12809). Nature of the assay: hERG Binding Assay (fluorescence polarization, Cy3B N-desmethyl dofetilide). The arrangement: expressed in transfected cells; membrane homogenate used. How it is done:
67 black 384 well flat -bottomed polystyrene plates. Compound/vehicle or standard (5 µL) were added
68 to wells followed by His -tagged BRD4 (10 µL; 40 nM final concentration in assay). Following a
69 15 min incubation at room temperature a propri etary Cy5 -labelled probe molecule (5 µL; 2 nM
70 final concentration in assay) was added. Following, an additional 16 h incubation at room
71 temperature fluorescence polarization measurements were made using an Envision plate reader
72 (Perkin Elmer, Waltham, MA, USA) and mP values were used for analysis .
73 Acetylcholinesterase As say
74 The assay described is based on Ellmans method, in which thiocholine produced by the action of
75 acetylcholinesterase forms a yellow color with 5,5'- dithiobis(2- nitrobenzoic acid). The intensity
76 of the product color, measured at 405 nm, is proportionate to the enzyme activity in the sample.
77 To each well of a clear 96 polystyrene plate 90 µL enzyme solution (1mU/well) or phosphate
78 buffered saline (PBS) and 10 µL compound/standard or vehicle was added. The plate was […]
81 read at the 20 min time point. […]
100 at room temperature for 16 h. Fluorescence polarization measurements were made using an
101 Envision plate reader (Perkin Elmer, Waltham, M A, USA) and mP values were us ed for analysis.
102 Binding Ki values were determined using the Cheng- Prusoff equation (Ki = IC50/(1+L/Kd)), where […]

Chain of hERG (Q12809 whole entry): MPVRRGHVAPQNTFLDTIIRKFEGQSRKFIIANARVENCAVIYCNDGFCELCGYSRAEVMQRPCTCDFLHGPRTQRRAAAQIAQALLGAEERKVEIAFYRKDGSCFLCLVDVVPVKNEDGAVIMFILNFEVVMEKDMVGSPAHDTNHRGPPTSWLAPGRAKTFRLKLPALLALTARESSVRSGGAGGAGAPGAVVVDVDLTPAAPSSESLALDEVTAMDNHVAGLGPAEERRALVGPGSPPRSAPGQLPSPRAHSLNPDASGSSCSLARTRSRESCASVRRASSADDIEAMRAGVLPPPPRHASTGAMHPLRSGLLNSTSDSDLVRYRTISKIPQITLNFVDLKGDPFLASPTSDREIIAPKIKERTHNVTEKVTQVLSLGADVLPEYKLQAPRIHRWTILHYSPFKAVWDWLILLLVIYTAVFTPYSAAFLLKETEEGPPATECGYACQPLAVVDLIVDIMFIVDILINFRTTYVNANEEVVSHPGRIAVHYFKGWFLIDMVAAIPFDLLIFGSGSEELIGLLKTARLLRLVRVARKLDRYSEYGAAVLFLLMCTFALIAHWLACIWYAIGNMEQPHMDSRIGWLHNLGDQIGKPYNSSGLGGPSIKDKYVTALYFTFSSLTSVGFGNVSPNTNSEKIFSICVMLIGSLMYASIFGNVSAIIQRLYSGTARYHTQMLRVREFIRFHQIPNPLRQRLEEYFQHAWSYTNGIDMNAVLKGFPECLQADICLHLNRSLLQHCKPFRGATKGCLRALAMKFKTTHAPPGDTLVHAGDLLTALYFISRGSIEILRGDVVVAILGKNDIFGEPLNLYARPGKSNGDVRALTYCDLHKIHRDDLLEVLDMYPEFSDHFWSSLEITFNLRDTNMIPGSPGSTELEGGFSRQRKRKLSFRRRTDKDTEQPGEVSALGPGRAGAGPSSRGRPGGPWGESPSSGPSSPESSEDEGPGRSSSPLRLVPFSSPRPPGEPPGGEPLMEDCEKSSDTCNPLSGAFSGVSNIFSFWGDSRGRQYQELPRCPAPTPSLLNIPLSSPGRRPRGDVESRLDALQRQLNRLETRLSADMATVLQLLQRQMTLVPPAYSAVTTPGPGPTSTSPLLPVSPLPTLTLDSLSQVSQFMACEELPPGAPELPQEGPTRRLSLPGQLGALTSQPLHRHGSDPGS

Turning to `CCOc1cc(C)nc(N(CCOC)S(=O)(=O)c2ccc(NCc3c(F)cncc3F)nc2OC)n1` [Compound 1], the Ki was above 80 µM.
